Active and inactive are the calls of the source. A value given as a limit tells only on which side of the number the result lay.

For data set [1], the target named is T1, Amine oxidase [flavin-containing] B (Homo sapiens, UniProt P27338).
T1 sequence (P27338 whole entry): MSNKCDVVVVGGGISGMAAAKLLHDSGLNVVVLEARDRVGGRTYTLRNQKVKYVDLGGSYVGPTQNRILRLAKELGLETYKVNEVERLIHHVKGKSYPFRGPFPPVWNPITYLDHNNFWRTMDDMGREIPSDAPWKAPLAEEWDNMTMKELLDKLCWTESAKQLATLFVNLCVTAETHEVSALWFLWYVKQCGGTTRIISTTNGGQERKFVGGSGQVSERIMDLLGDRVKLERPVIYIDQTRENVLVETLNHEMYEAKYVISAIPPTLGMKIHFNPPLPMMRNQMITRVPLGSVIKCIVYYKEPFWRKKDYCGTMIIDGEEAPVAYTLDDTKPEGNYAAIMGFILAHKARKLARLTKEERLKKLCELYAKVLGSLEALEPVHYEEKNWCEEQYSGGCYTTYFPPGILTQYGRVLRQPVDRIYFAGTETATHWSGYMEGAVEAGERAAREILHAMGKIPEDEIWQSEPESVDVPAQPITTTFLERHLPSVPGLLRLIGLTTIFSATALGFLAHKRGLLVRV
In words: Inhibition of recombinant N-terminal FLAG-tagged human MAOB expressed in baculovirus infected Sf9 insect cells using luminogenic MAO substrate measured after 1 hr by MAO-glo assay.

Data set [2] in a line: Intrinsic clearance in human microsomes preincubated for 10 mins followed by NADPH regenerating system addition and measured up to 60 mins by LC-MS/MS analysis. The data set is classed as ADME, Microsome. The conditions noted are these: time 10-70 min.
Data set [3] has as its target T2, Lysine-specific histone demethylase 1A (Homo sapiens, UniProt O60341). In words: Reversible inhibition of recombinant N-terminal FLAG-tagged human LSD1 expressed in baculovirus infected Sf9 insect cells at 10 times IC50 using H3K4me2 as substrate preincubated for 30 mins followed by 100 fold dilution and subsequent substrate addition and measured after 30 mins by jump dilution method. Particulars: time 60.0 min.

The subject of data set [4] is MGC-803. In words: Induction of apoptosis in human MGC-803 cells assessed as apoptotic rate at 4 uM after 72 hrs by Annexin V-FITC/propidium iodide staining based flow cytometry relative to control. The data set is classed as functional. On the technique in general: Flow cytometry measures light scatter and fluorescence of single cells or particles in a stream.
Data set [5] can be described thus: Stability in human liver microsomes assessed as parent compound remaining measured 60 mins after mins by LC-MS/MS analysis. The data set is classed as ADME, Microsome. The conditions noted are these: liver microsomes, read-out: Stabilty. On the technique in general: Liver microsomes are vesicles of endoplasmic reticulum, rich in cytochrome P450 enzymes.
Data set [6] concerns MCF7. Put plainly: cells. Particulars: Homo sapiens, MCF7, 72 h.
Description: Antiproliferative activity against human MCF7 cells incubated for 72 hrs by CCK8 assay
In data set [7] the test system is NB-4. In words: cells. Particulars: Homo sapiens, NB-4, 72 h.
Description: Antiproliferative activity against human NB-4 cells incubated for 72 hrs by CCK8 assay
Data set [8] deals with T2, Lysine-specific histone demethylase 1A. Put plainly: Inhibition of LSD1 in human MGC-803 cells assessed as increase in H3K9me1 accumulation up to 4 uM measured after 72 hrs by Western blot analysis. Particulars: dose microM <=4, time 72.0 hrs. In kind it is cell-based. (In general: A western blot detects proteins with antibodies after separation by electrophoresis.)
The subject of data set [9] is MGC-803. Put plainly: Induction of apoptosis in human MGC-803 cells after 72 hrs by Annexin V-FITC/propidium iodide staining based flow cytometry. The data set is classed as functional, cell-based.
In data set [10] the target is T2, Lysine-specific histone demethylase 1A.
Description: Inhibition of human recombinant LSD1 using fluorogenic ADHP based substrate preincubated for 30 mins followed by substrate addition measured after 10 mins by horseradish peroxidase coupled fluorescence assay
Data set [11] is described as follows: Half life in human liver microsomes preincubated for 10 mins followed by NADPH regenerating system addition and measured up to 60 mins by LC-MS/MS analysis. Particulars: time 10-70 min. In kind it is ADME, Microsome.
Data set [12] concerns MGC-803. In words: Cell cycle arrest in human MGC-803 cells assessed as decrease in G2/M phase accumulation at 4 uM after 72 hrs by propidium iodide staining based flow cytometry. The data set is classed as functional.
Data set [13] relates to MGC-803. In words: Cell cycle arrest in human MGC-803 cells assessed as increase in S phase accumulation at 4 uM after 72 hrs by propidium iodide staining based flow cytometry. In kind it is functional.
Data set [14] has as its target T3, Amine oxidase [flavin-containing] A (Homo sapiens, UniProt P21397).
T3 sequence (P21397 whole entry): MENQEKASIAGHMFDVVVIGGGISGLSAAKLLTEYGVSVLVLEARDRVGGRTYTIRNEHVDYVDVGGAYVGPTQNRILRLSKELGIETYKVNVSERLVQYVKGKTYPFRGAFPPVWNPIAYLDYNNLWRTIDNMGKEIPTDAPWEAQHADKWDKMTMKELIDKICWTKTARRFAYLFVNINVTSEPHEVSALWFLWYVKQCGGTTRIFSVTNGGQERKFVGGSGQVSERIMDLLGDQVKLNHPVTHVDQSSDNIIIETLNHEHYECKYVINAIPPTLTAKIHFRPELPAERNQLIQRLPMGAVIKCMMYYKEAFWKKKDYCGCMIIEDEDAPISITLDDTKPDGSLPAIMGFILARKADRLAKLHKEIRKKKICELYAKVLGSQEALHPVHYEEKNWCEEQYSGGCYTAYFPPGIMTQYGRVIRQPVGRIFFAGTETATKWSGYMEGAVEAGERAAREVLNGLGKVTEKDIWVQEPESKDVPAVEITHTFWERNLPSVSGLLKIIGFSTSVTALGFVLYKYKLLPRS
In words: Inhibition of recombinant N-terminal FLAG-tagged human MAOA expressed in baculovirus infected Sf9 insect cells using luminogenic MAO substrate measured after 1 hr by MAO-glo assay.

The nature of data set [15]: Stability in human liver microsomes assessed as parent compound remaining preincubated for 10 mins followed by NADPH regenerating system addition and measured up to 60 mins by LC-MS/MS analysis. The data set is classed as ADME, Microsome. Particulars: time 10-70 min, read-out: Stabilty.
Data set [16] deals with A549. In words: cells. The conditions noted are these: Homo sapiens, A549, 72 h.
Description: Antiproliferative activity against human A549 cells incubated for 72 hrs by CCK8 assay
Data set [17] deals with MGC-803. In words: cells. The conditions noted are these: Homo sapiens, MGC-803, 72 h.
Description: Antiproliferative activity against human MGC-803 cells incubated for 72 hrs by CCK8 assay
Data set [18] concerns PC-3. In words: cells. The conditions noted are these: Homo sapiens, PC-3, 72 h.
Description: Antiproliferative activity against human PC-3 cells incubated for 72 hrs by CCK8 assay
Data set [19] deals with T2, Lysine-specific histone demethylase 1A. Put plainly: Non-competitive inhibition of recombinant N-terminal FLAG-tagged human LSD1 expressed in baculovirus infected Sf9 insect cells up to 0.6 uM using varying levels of H3K4me2 as substrate measured after 45 mins by Lineweaver-burk plot analysis. The conditions noted are these: dose microM <=0.6, time 45.0 min.
Data set [20] deals with THP-1. In words: cells. Particulars: Homo sapiens, THP-1, 72 h.
Description: Antiproliferative activity against human THP-1 cells incubated for 72 hrs by CCK8 assay
Data set [21] addresses T2, Lysine-specific histone demethylase 1A. Put plainly: Inhibition of LSD1 in human MGC-803 cells assessed as increase in H3K4me2 accumulation measured after 72 hrs by Western blot analysis. The data set is classed as cell-based.
Data set [22] shares this target. Put plainly: Inhibition of LSD1 in human MGC-803 cells assessed as increase in H3K9me2 accumulation up to 4 uM measured after 72 hrs by Western blot analysis. In kind it is cell-based. Particulars: dose microM <=4, time 72.0 hrs.

Take `Cn1c(C(=O)Nc2cccc3c2N(Cc2ccc(OC4CCNCC4)cc2)CCC3)cc2ccccc21`: the 50% inhibitory concentration (IC50) was more than 50 µM in data set [1]; 5.83 µM in data set [6]; 9.53 µM in data set [7]; 0.05 nM in data set [10]; more than 50 µM in data set [14]; 5.97 µM in data set [16]. Besides, the IC50 in data set [17] is 1130 nM; in data set [18], 2860 nM; in data set [20] it was 9.68 µM. This molecule also registered a microsomal CLint in data set [2] of 50.1 µL/min/mg. In addition, the inhibition entry in data set [3], in data set [8], in data set [19] and in data set [22] was “Active” each time. Further, the values for the Activity in [4] and in data set [9] were 22.79% and “Dose-dependent effect”, respectively. Also, the remaining at 1 h in data set [5] came to 101%; in data set [15], 20.3%. Further, the half-life in data set [11] was 27.7 min. Further, the outcome in data set [12] and in data set [13] was Active. Besides, in data set [21], the inhibition result is “Dose-dependent effect”.

The IC50 is the concentration needed to halve the response being measured. Broadly, the microsomal CLint is the capacity of the preparation to metabolise the compound, expressed as a volume cleared per time. Low readings indicate slow turnover, high ones rapid turnover. For orientation: half-life means the time needed for the level to fall by half in the phase considered. A high value points to slow loss.
